SMILES strings stand for the structures. Where a name gives a salt, the structure may show the parent alone.

For the assay, the target named is human GlyT1c transporter (Homo sapiens (Human), UniProt P48067). Briefly: Radioligand binding assay using recombinant CHO cell membranes expressing human GlyT1. The note with it: human GlyT1c-expressing CHO cell membranes; read-out: radioligand binding Kiapp. The text has this: 2. Radioligand binding assays using recombinant CHO cell membranes expressing human GlyT1: […]
Chain of human GlyT1c transporter (P48067 whole entry): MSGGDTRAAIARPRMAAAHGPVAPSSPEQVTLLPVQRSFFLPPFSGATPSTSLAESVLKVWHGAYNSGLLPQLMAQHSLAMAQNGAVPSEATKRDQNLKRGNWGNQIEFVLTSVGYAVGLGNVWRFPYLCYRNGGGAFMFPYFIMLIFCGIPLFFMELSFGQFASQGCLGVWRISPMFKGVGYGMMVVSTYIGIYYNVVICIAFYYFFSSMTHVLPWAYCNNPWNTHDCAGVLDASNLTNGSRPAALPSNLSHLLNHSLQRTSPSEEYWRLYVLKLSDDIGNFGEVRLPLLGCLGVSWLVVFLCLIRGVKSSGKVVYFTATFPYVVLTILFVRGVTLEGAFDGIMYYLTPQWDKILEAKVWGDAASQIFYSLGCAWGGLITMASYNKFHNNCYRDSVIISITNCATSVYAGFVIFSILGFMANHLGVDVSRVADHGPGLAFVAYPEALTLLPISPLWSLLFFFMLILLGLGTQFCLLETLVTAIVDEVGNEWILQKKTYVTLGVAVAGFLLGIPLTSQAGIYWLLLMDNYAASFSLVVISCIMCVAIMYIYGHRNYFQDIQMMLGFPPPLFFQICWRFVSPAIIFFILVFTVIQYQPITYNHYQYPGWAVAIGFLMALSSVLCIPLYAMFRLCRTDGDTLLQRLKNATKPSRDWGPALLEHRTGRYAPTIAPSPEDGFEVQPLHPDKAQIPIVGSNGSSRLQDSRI
`O=S(=O)(CC1CC1)NCCOc1ccc2c(c1)C(Cc1cccc(Cl)c1)C(N1CCC1)CC2` (stereo not shown) [Example 320, N-{2-[7-Azetidin-1-yl-8-(3-chloro-benzyl)-5,6,7,8-tetrahydro-naphthalen-2-yloxy]-ethyl}-C-cyclopropyl-methanesulfonamide]: the Ki was at most 100 nM. In the case of `Cn1cnc(S(=O)(=O)NCCOc2ccc3c(c2)C(Cc2cccc(F)c2)C(N2CCC2)CC3)c1` (stereo not shown) [Example 141, N-(2-{[7-(Azetidin-1-yl)-8-(3-fluorobenzyl)-5,6,7,8-tetrahydronaphthalen-2-yl]oxy}ethyl)-1-methyl-1H-imidazole-4-sulfonamide hydrochloride], the Ki is at most 10 nM. With `O=S(=O)(NCCOc1ccc2c(c1)C(Cc1ccc(Cl)c(Cl)c1)C(N1CCCC1)CC2)C1CCC1` (stereo not shown) [Example 88, Cyclobutanesulfonic acid {2-[8-(3,4-dichloro-benzyl)-7-pyrrolidin-1-yl-5,6,7,8-tetrahydronaphthalen-2-yloxy]-ethyl}-amide hydrochloride] the figure was at most 100 nM; with `CCCS(=O)(=O)NCCCc1ccc2c(c1)C(Cc1ccc(F)cc1)C(NCC)CC2` (stereo not shown) [Example 220, N-{3-[7-(Ethylamino)-8-(4-fluorobenzyl)-5,6,7,8-tetrahydronaphthalen-2-yl]propyl}propane-1-sulfonamide hydrochloride], at most 1000 nM. With `Cn1cnc(S(=O)(=O)NCc2ccc3c(c2)C(Cc2ccccc2)C(N2CCCC2)CC3)c1` (stereo not shown) [Example 262, N-{[8-Benzyl-7-(pyrrolidin-1-yl)-5,6,7,8-tetrahydronaphthalen-2-yl]methyl}-1-methyl-1H-imidazole-4-sulfonamide] the figure was at most 100 nM; with `NC1CCc2ccc(CNS(=O)(=O)C3CCC3)cc2C1Cc1ccc(F)cc1` (stereo not shown) [Example 174, N-{[7-Amino-8-(4-fluorobenzyl)-5,6,7,8-tetrahydronaphthalen-2-yl]methyl}cyclobutanesulfonamide hydrochloride], at most 1000 nM; with `CN(CCOc1ccc2c(c1)C(Cc1ccccc1)C(N1CCCC1)CC2)S(=O)(=O)CC1CC1` (stereo not shown) [Example 127, N-(2-{[8-Benzyl-7-(pyrrolidin-1-yl)-5,6,7,8-tetrahydronaphthalen-2-yl]oxy}ethyl)-1-cyclopropyl-N-methylmethanesulfonamide hydrochloride], at most 100 nM.

With `CCCS(=O)(=O)NCCOc1ccc2c(c1)C(Cc1ccccc1F)C(NC)CC2` (stereo not shown) [Example 311, Propane-1-sulfonic acid {2-[8-(2-fluoro-benzyl)-7-methylamino-5,6,7,8-tetrahydronaphthalen-2-yloxy]-ethyl}-amide hydrochloride], the Ki is at most 100 nM. With `CNC1CCc2ccc(OCCNS(=O)(=O)CC3CC3)cc2C1Cc1cccc(Cl)c1` (stereo not shown) [Example 300, N-{2-[8-(3-Chloro-benzyl)-7-methylamino-5,6,7,8-tetrahydro-naphthalen-2-yloxy]-ethyl}-C-cyclopropyl-methanesulfonamide hydrochloride] the figure was at most 10 nM; with `CCNC1CCc2ccc(CNS(=O)(=O)c3cnn(C)c3)cc2C1Cc1cccc(F)c1` (stereo not shown) [Example 200, 1-Methyl-1H-pyrazole-4-sulfonic acid [7-ethylamino-8-(3-fluoro-benzyl)-5,6,7,8-tetrahydronaphthalen-2-ylmethyl]-amide hydrochloride], at most 100 nM. With `CCCS(=O)(=O)NCCCc1ccc2c(c1)C(Cc1ccc(F)c(F)c1)C(N)CC2` (stereo not shown) [Example 206, N-{3-[7-Amino-8-(3,4-difluoro-benzyl)-5,6,7,8-tetrahydronaphthalen-2-yl]propyl}propane-1-sulfonamide hydrochloride], the Ki is at most 100 nM.

With `CNC1CCc2ccc(OCCNS(=O)(=O)CC3CC3)cc2C1Cc1cc(F)cc(F)c1` (single isomer, unassigned; enantiomer 2) [Example 244, Enantiomer 2 of 1-cyclopropyl-N-(2-{[8-(3,5-difluorobenzyl)-7-(methylamino)-5,6,7,8-tetrahydronaphthalen-2-yl]oxy}ethylmethanesulfonamide hydrochloride], the Ki is at most 10 nM. The same measure for `Cn1ccc(S(=O)(=O)NCc2ccc3c(c2)C(Cc2ccccc2)C(N)CC3)c1` (stereo not shown) [Example 180, N-{[7-Amino-8-benzyl-5,6,7,8-tetrahydronaphthalen-2-yl]methyl}-1-methyl-1H-pyrrole-3-sulfonamide hydrochloride]: at most 10 nM. The same measure for `Cn1ccc(S(=O)(=O)NCCOc2ccc3c(c2)C(Cc2cc(F)cc(F)c2)C(NC=O)CC3)c1` (stereo not shown) [Example 271, N-(2-{[8-(3,5-Difluorobenzyl)-7-(formylamino)-5,6,7,8-tetrahydronaphthalen-2-yl]oxy}ethyl)-1-methyl-1H-pyrrole-3-sulfonamide]: at most 100 nM; for `CCCS(=O)(=O)N(C)CCCc1ccc2c(c1)C(Cc1cccc(F)c1)C(N)CC2` (stereo not shown) [Example 227, N-{3-[7-Amino-8-(3-fluorobenzyl)-5,6,7,8-tetrahydronaphthalen-2-yl]propyl}-N-methylpropane-1-sulfonamide hydrochloride]: at most 100 nM. The same measure for `CCCS(=O)(=O)NCCCc1ccc2c(c1)C(Cc1cccc(F)c1)C(NCC)CC2` (stereo not shown) [Example 219, Propane-1-sulfonic acid {3-[7-ethylamino-8-(3-fluoro-benzyl)-5,6,7,8-tetrahydronaphthalen-2-yl]-propyl}-amide hydrochloride]: at most 100 nM; for `O=S(=O)(CC1CC1)NCCOc1ccc2c(c1)C(Cc1cccc(Cl)c1)C(N1CCCC1)CC2` (stereo not shown) [Example 317, N-{2-[8-(3-Chloro-benzyl)-7-pyrrolidin-1-yl-5,6,7,8-tetrahydro-naphthalen-2-yloxy]-ethyl}-C-cyclopropyl-methanesulfonamide hydrochloride]: at most 100 nM.

For `CN(CCCc1ccc2c(c1)C(Cc1ccccc1Cl)C(N)CC2)S(=O)(=O)CC1CC1` (stereo not shown) [Example 228, N-{3-[7-Amino-8-(2-chloro-benzyl)-5,6,7,8-tetrahydro-naphthalen-2-yl]-propyl}-C-cyclopropyl-N-methyl-methanesulfonamide hydrochloride], the Ki was at most 100 nM. With `CCCS(=O)(=O)NCCCc1ccc2c(c1)C(Cc1ccccc1Cl)C(N)CC2` (stereo not shown) [Example 211, N-{3-[7-Amino-8-(2-chlorobenzyl)-5,6,7,8-tetrahydronaphthalen-2-yl]propyl}propane-1-sulfonamide hydrochloride] the figure was at most 1000 nM.

With `CNC1CCc2ccc(CNS(=O)(=O)c3ccn(C)n3)cc2C1Cc1ccccc1` (stereo not shown) [Example 191, N-{[8-Benzyl-7-(methylamino)-5,6,7,8-tetrahydronaphthalen-2-yl]methyl}-1-methyl-1H-pyrazole-3-sulfonamide hydrochloride], the Ki was at most 1000 nM. With `Cn1cnc(S(=O)(=O)NCc2ccc3c(c2)C(Cc2ccccc2)C(N2CCC2)CC3)c1` (stereo not shown) [Example 248, N-{[7-(Azetidin-1-yl)-8-benzyl-5,6,7,8-tetrahydronaphthalen-2-yl]methyl}-1-methyl-1H-imidazole-4-sulfonamide] the figure was at most 10 nM; with `Cn1cnc(S(=O)(=O)NCCOc2ccc3c(c2)C(Cc2cc(F)cc(Cl)c2)C(N)CC3)c1` (stereo not shown) [Example 151, N-(2-{[7-Amino-8-(3-chloro-5-fluorobenzyl)-5,6,7,8-tetrahydronaphthalen-2-yl]oxy}ethyl)-1-methyl-1H-imidazole-4-sulfonamide hydrochloride], at most 10 nM.

For the origin of these results see patent US9067871B2, “Aminotetraline derivatives, pharmaceutical compositions containing them, and their use in therapy” (ABBVIE DEUTSCHLAND GMBH & CO KG, priority 2009, dated 2015).
